Laboratory results: patent US11457626B2, “Method for impairing a Cassie-Baxter state” (priority 2016, dated 2022)

Columns and labels:
[1] = system: PLA2; conditions: anti-inflammatory; cited from earlier work
[2] = acidity relative to oxalic acid; format: physicochemical
Excerpt: Further, their respective salts, sodium dipicolinate and monosodium phosphate both have essentially neutral pHs and both are known, powerful natural coordination complex chelators that prefer calcium over sodium in all but basic pH environments. […] This calcium coordination effect is why acidic anions dipicolinic acid and phosphoric acid, as well as their respective salts, are commonly used detergent ingredients (European Patent No. EP 0358472 A2, Detergent Compositions). In addition, phosphates (the phosphoric acid salts) are so safe and non-toxic that they are used as food additives and as emulsifiers.

[3] = cited from earlier work
[4] = solubility / dispersibility of dipicolinic acid in vehicles; format: physicochemical
Excerpt: As natural emulsifiers, the use of phosphates also greatly expands the possible range of usable solution/suspensions available for the present invention to concomitantly include, along with these phosphates, other arthropod plastron chemical degraders, such as carboxylic, dipicolinic, oxalic acids and their respective salts, as well as terpenes and low molecular weight non-polar alkanes, including cyclic alkanes. Dipicolinic acid is also dually beneficially to this plastron degrading effect because it is also a potent anti-inflammatory PLA2 inhibitor and thus would help reduce the concomitant skin inflammation associated with demodex infestations (U.S. Pat. No. 6,127,393, Antiproliferative, antiinfective, antiinflammatory, autologous immunization agent and method). […] However, the inventor has discovered that dipicolinic acid is soluble in glycerin, a common skin product ingredient, and is colloidal in low molecular weight non-polar solutions and in hyaluronic acid (a very high molecular weight […] common to the eye).

[5] = system: demodex mites; conditions: mineral oil as control and solvent; cited from earlier work

Row | SMILES | PLA2 inhibition [1] | times less acidic than oxalic acid [2] | solubility in water [3] | solubility in glycerin ([4]; glycerin) | state in hyaluronic acid ([4]; hyaluronic acid) | state in low molecular weight non-polar solutions ([4]; low molecular weight non-polar solutions) | activity against demodex mites among tea tree oil ingredients [5]
1 | O=C(O)c1cccc(C(=O)O)n1 [dipicolinic acid] | potent | about 10 times | limited solubility | soluble | colloidal | colloidal | –
2 | O=P(O)(O)O [phosphoric acid] | – | about 10 times | – | – | – | – | –
3 | CC1=CCC(O)(C(C)C)CC1 (centres unmarked) [terpinen-4-ol] | – | – | – | – | – | – | most active ingredient
